The text below walks through data of patent publication EP0737691A1, “Bombesin analogs” (BIOMEASURE, INC., priority 1995, dated 1996).

For assay [1], the target named is T1, GRP receptor (Rattus norvegicus, UniProt P52500).
T1 construct: endogenous in cells; host or cells: Rat AR42J pancreatic acinar cells (membranes)
The assay can be described thus: GRP Receptor Binding Assay ([125I-Tyr4] bombesin displacement, AR42J cell membranes). How it is done: Rat AR42J pancreatic acinar cells were cultured in Dulbecco's modified Eagle's medium without antibiotics and supplemented with 10% (vol/vol) fetal calf serum. The incubation atmosphere consisted of 10% CO2-90% humidified air at 37°C.
Membranes for the bombesin receptor binding assay were obtained by homogenizing AR42J cells (Polytron, setting 6, 15 sec)(Brinkman, Westbury, NY) in ice-cold 50 mM Tris-HCl (Buffer A) and centrifuging twice at 39,000 x g (10 min), with an intermediate resuspension in fresh Buffer A. The final pellets were resuspended in 50 mM Tris-HCl, containing 0.1 mg/ml bacitracin, and 0.1% BSA (Buffer B), and held on ice for the receptor binding assay.

Assay [2] concerns the target T2, rat NMB receptor (Rattus norvegicus, UniProt P24053).
T2 construct: expressed in transfected cells; host or cells: BALB-3T3 (mouse) fibroblasts
T2 sequence (P24053 1-390): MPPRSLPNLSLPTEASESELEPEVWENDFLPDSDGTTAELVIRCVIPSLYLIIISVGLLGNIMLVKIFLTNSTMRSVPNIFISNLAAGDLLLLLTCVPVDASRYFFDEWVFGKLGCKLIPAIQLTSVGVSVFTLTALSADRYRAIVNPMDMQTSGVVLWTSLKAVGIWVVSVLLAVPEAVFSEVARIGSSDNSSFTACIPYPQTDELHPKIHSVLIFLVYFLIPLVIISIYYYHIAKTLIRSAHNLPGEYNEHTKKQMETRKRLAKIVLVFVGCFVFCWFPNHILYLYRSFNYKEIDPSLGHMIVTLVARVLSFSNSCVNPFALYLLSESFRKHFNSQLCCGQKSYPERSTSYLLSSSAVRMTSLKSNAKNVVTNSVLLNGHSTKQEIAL
The assay can be described thus: NMB Receptor Binding Assay (membranes of BALB-3T3 fibroblasts transfected with the rat NMB receptor). The conditions noted are these: for pIC50: affinity for the NMB receptor, BALB-3T3 fibroblasts transfected with the rat NMB receptor, 30 min, 4°C. As to the method:
The procedure for transfecting the rat NMB receptor into BALB-3T3 fibroblasts is discussed in Wada, et al., Neuron, […] (1991) and Benya, et al., Mol. Pharmacol., 42:1058 (1992).
Membranes for the bombesin receptor binding assay were obtained by homogenizing […] fibroblasts, transfected with the rat NMB receptor (Polytron, setting 6, 15 sec) in ice-cold 50 mM Tris-HCl (Buffer A) and centrifuging twice at 39,000 x g (10 min), with an intermediate resuspension in fresh Buffer A. The final pellets were resuspended in 50 mM Tris-HCl, containing 0.1 mg/ml bacitracin, and 0.1% BSA (Buffer B), and held on ice for the receptor binding assay.
For assay, aliquots (0.4 ml) were incubated with 0.05 ml [^125 I-Tyr^4] bombesin (∼2200 Ci/mmol, New England Nuclear) and Buffer B, with and without 0.05 ml of unlabeled competing analogs. After a 30 min incubation (4°C), the bound [^125 I-Tyr^4] bombesin was separated from the free by rapid filtration through Whatman™ GF/B filters which had been previously soaked in 0.3% polyethyleneimine using a Brandel filtration manifold. The filters were then washed three times with 5 ml aliquots of ice-cold Buffer A. Specific binding was defined as the total [^125 I-Tyr^4] […] bound minus that bound in the presence of 1 µM unlabeled neuromedin-B.
Replacement of Gly at position A^6 in a prior art compound (i.e., litorin, leu-litorin, and [D-Phe^1, Leu^8,9] litorin) with β-Ala led unexpectedly to a great increase in their affinity for the NMB receptor. […] Modifications at position A^1, A^8, or A^9 further increases the affinity. […]

Assay [3] has as its system R-3327/H prostate tumor. Description: Assay on in vivo prostate tumor growth. Set-up: species or system Copenhagen male rats. The conditions noted are these: 200 mg/inj. s.c., B.I.D., 24 days; castrated rats with tumors escaped from castration inhibition; versus vehicle; after day 17; Fig. 1. An excerpt: The androgen responsive R-3327/H prostate tumor line was implanted into 38 testes-intact, syngeneic Copenhagen male rats. The tumored animals were individually staged for castration when their tumors reached a size approximating 235 mgs. Tumors were then staged for bombesin analogue treatment when two sequential tumor measurements indicated an "escape from castration inhibition" condition, as evidenced by an increase in tumor growth rate. This transition of the prostate tumor tissue from androgen sensitive to androgen insensitive occurred without surgical perturbation of the tumor, thus providing a clinically realistic model for evaluating the anti-prostate tumor activity of the bombesin analogues.
The tumored animals were separated into two groups of 19 animals. Treatment was only initiated when tumors reached the "escape from castration inhibition" condition. Group 1 received 0.2 ml/inj. of 2.6% glycerol/water vehicle, (s.c., B.I.D.). Group 2 received a […]. of Analog #5 (s.c., B.I.D.). […] Tumors were measured using Vernier calipers and the volume was calculated using the following formula: (0.5)(length)(width)^2
Fig. 1 illustrates the tumor growth inhibitory effect of the treatments in Group 1 and Group 2. Relative tumor volume was calculated by the following formula: (Tumor Volume (measuring day))/(Tumor Volume (staging day))x 100 [formula] […]

Setting [4] is: affinity for the GRP receptor, [125I-Tyr4] bombesin, rat AR42J pancreatic acinar cell membranes, 30 min, 4°C, read-out: IC50.

Molecules are shown by their SMILES. pIC50: −log10 of the molar value. Where two headings read alike, the source gives them in different places. Square brackets hold non-standard residues; d marks the D form. Peptide text beside a SMILES is read from it. Nle = CCCC[C@H](N)C(=O)O; βAla = NCCC(=O)O

T1 sequence (P52500 whole entry): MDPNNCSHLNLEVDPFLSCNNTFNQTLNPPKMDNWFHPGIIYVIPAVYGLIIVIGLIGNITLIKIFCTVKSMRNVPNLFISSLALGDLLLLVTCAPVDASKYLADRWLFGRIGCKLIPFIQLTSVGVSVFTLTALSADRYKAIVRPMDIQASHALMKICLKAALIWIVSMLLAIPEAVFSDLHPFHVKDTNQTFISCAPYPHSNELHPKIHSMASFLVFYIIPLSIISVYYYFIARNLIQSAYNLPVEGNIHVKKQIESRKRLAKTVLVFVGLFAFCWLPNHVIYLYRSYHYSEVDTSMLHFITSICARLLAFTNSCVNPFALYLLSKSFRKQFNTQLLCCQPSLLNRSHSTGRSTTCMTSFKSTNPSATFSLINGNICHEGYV

The term pIC50 denotes the IC50 on a negative log10 scale, so that one unit is a factor of ten. Take `CCCC[C@H](NC(=O)[C@H](Cc1ccccc1)NC(=O)[C@H](Cc1c[nH]cn1)NC(=O)CCNC(=O)[C@@H](NC(=O)[C@H](C)NC(=O)[C@H](Cc1c[nH]c2ccccc12)NC(=O)[C@H](CCC(N)=O)NC(=O)[C@H](N)Cc1ccccc1)C(C)C)C(N)=O` [Analog #1, H-D-Phe-Gln-Trp-Ala-Val-β-Ala-His-Phe-Nle-NH2] (H-[dF]QWAV[βAla]HF[Nle]-NH2): the pIC50 in assay [1] (setting [4]) is 9.70; in assay [2], 9.00.

As to `CC(C)C[C@H](NC(=O)[C@H](CC(C)C)NC(=O)[C@H](Cc1c[nH]cn1)NC(=O)CCNC(=O)[C@@H](NC(=O)[C@H](C)NC(=O)[C@H](Cc1c[nH]c2ccccc12)NC(=O)[C@H](CCC(N)=O)NC(=O)[C@H](N)Cc1ccccc1)C(C)C)C(N)=O` [Analog #2, H-D-Phe-Gln-Trp-Ala-Val-β-Ala-His-Leu-Leu-NH2] (H-[dF]QWAV[βAla]HLL-NH2), the figures for the pIC50 in assay [1] (setting [4]) and in assay [2] were 9.00 and 7.39, respectively. Further, the “increase in the affinity for the NMB receptor” value in assay [2] (fold increase compared with litorin or [D-Phe1, Leu8,9] litorin) is on record as 11.7 time.

On to `CCCC[C@H](NC(=O)[C@H](Cc1ccccc1)NC(=O)[C@H](Cc1cnc[nH]1)NC(=O)CCNC(=O)[C@@H](NC(=O)[C@H](C)NC(=O)[C@H](Cc1c[nH]c2ccccc12)NC(=O)[C@H](CCC(N)=O)NC(=O)[C@H](N)Cc1ccc(O)cc1)C(C)C)C(N)=O` [Analog #3, H-D-Tyr-Gln-Trp-Ala-Val-β-Ala-His-Phe-Nle-NH2] (H-[dY]QWAV[βAla]HF[Nle]-NH2), for which the pIC50 in assay [2] was 9.00.

For `CCCC[C@H](NC(=O)[C@H](Cc1ccccc1)NC(=O)[C@H](Cc1c[nH]cn1)NC(=O)CCNC(=O)[C@@H](NC(=O)[C@H](C)NC(=O)[C@H](Cc1c[nH]c2ccccc12)NC(=O)[C@H](CCC(N)=O)NC(=O)[C@H](N)Cc1c[nH]c2ccccc12)C(C)C)C(N)=O` [Analog #4, H-D-Trp-Gln-Trp-Ala-Val-β-Ala-His-Phe-Nle-NH2] (H-[dW]QWAV[βAla]HF[Nle]-NH2), the values for the pIC50 in assay [1] (setting [4]) and in assay [2] were 10.00 and 10.40, respectively.

For the compound `CCCC[C@H](NC(=O)[C@H](CC(C)C)NC(=O)[C@H](Cc1c[nH]cn1)NC(=O)CCNC(=O)[C@@H](NC(=O)[C@H](C)NC(=O)[C@H](Cc1c[nH]c2ccccc12)NC(=O)[C@H](CCC(N)=O)NC(=O)[C@H](N)Cc1ccccc1)C(C)C)C(N)=O` [Analog #5, H-D-Phe-Gln-Trp-Ala-Val-β-Ala-His-Leu-Nle-NH2] (H-[dF]QWAV[βAla]HL[Nle]-NH2), the pIC50 in assay [1] (setting [4]) is 8.68; in assay [2] it was 8.05. The “Rate of tumor growth” value in assay [3] is given as “significantly (p < 0.05) inhibited”.

For `CC(C)C[C@H](NC(=O)[C@H](CC(C)C)NC(=O)[C@H](Cc1c[nH]cn1)NC(=O)CNC(=O)[C@@H](NC(=O)[C@H](C)NC(=O)[C@H](Cc1c[nH]c2ccccc12)NC(=O)[C@H](CCC(N)=O)NC(=O)[C@@H]1CCC(=O)N1)C(C)C)C(N)=O` [Leu-Litorin, p-Glu-Gln-Trp-Ala-Val-Gly-His-Leu-Leu-NH2, reference compound], the results for the pIC50 in assay [1] and in assay [2] were 7.64 and below 5.00, respectively. Further, the “binding affinity on the NMB receptor” value in assay [2] (result in words) is listed as “almost no binding affinity”.

Take `CSCC[C@H](NC(=O)[C@H](Cc1ccccc1)NC(=O)[C@H](Cc1c[nH]cn1)NC(=O)CNC(=O)[C@@H](NC(=O)[C@H](C)NC(=O)[C@H](Cc1c[nH]c2ccccc12)NC(=O)[C@H](CCC(N)=O)NC(=O)[C@@H]1CCC(=O)N1)C(C)C)C(N)=O` [Litorin, p-Glu-Gln-Trp-Ala-Val-Gly-His-Phe-Met-NH2, reference compound]: the pIC50 in assay [1] is 8.62; in assay [2], 8.78.

Consider `CC(C)C[C@H](NC(=O)[C@H](CC(C)C)NC(=O)[C@H](Cc1c[nH]cn1)NC(=O)CNC(=O)[C@@H](NC(=O)[C@H](C)NC(=O)[C@H](Cc1c[nH]c2ccccc12)NC(=O)[C@H](CCC(N)=O)NC(=O)[C@H](N)Cc1ccccc1)C(C)C)C(N)=O` [[D-Phe^1, Leu^8,9] litorin, H-D-Phe-Gln-Trp-Ala-Val-Gly-His-Leu-Leu-NH2, reference compound], for which the values for the pIC50 in assay [1] and in assay [2] were 8.55 and 6.32, respectively.
